For 28 compounds, IC50 results are on record in US20240199546A1, “INHIBITORS OF SOLUTE CARRIER FAMILY 6A MEMBER 19 (SLC6A19) AND METHODS OF USE THEREOF” (Maze Therapeutics, Inc., priority 2022, published 2024).

The target of the experiment is T1, human SLC6A19 and TMEM27 (Homo sapiens, UniProt Q695T7).
T1 construct: expressed in transfected cells
T1 sequence (Q695T7 1-634): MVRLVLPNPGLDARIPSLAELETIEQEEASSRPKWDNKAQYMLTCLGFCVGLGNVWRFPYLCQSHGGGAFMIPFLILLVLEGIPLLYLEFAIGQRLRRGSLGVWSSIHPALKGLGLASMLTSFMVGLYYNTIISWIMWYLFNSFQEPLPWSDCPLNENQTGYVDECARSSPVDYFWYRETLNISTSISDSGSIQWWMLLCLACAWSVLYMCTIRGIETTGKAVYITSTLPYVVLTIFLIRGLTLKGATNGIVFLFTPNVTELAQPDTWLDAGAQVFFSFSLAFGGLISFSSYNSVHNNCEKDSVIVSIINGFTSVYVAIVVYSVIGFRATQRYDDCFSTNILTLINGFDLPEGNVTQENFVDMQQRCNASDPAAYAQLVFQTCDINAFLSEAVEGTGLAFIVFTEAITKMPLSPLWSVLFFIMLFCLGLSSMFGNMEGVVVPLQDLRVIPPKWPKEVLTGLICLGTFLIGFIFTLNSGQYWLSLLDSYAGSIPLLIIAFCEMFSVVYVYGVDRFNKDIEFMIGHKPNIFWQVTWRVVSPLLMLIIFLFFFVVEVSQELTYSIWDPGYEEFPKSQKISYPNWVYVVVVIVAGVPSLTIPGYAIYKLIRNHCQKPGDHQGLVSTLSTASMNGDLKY
T1 sequence (Q9HBJ8 15-222 partner): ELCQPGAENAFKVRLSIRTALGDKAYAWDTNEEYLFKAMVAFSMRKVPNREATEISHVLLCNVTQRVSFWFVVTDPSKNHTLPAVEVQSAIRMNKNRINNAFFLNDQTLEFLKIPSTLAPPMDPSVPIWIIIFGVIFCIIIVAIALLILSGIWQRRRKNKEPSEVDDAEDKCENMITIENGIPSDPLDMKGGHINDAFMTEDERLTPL
As to the kind of experiment: 13C6,15N-isoleucine uptake in CHO cells with doxycycline-inducible expression of human SLC6A19 and TMEM27, RapidFire mass spectrometry (Example B-2). Format: cell-based. The following applies: read-out: SLC6A19_RapidFire Uptake Assay IC50. As to the method: Assay ready vials of CHO cells with doxycycline inducible expression of human SLC6A19 and TMEM27 were thawed, plated in T175 flasks containing DMEM/F12 media, 10% FBS, 1% Penicillin-Streptomycin, 1× UltraGlutamate, 1 mM Sodium Pyruvate, Sodium Bicarbonate (7.5 mL of 7.5% solution in 500 mL media final), 5 μg/mL Blasticidin, 150 μg/mL Hygromycin B Gold, and 500 μg/mL G418, and incubated (humidified, 37° C. with 5% CO2) for 48 hours. Media was then removed, flasks were washed with 20 mL of DPBS, and 5 mL of TrypLE™ Express was added to each flask to initiate cell dissociation. After 5 minutes, 10 mL of cell culture media was added to each flask and mixed. The cell suspension was collected and centrifuged for 5 minutes at 200×g. The supernatant was removed, and the pellet was resuspended in 10 mL of cell culture media. Resuspended cells were counted using a Vi-Cell. 30 μL/well (20,000 cells/well) of cell suspension was added to Poly-D-Lysine 384-well black/clear plates. Plates were incubated (humidified, 37° C. with 5% CO2) for 24 hours. To induce expression of human SLC6A19 and TMEM27, 10 μL of assay culture media containing 4 μg/mL doxycycline was added to each well. Assay plates were then incubated (humidified, 37° C. with 5% CO2) overnight. After incubation, the media was removed, and wells were washed 3 times with 40 μL of warmed DPBS. Next, 10 μL of warmed assay buffer (137 mM NaCl, 5 mM KCl, 1 mM CaCl2), 1 mM MgCl2, 10 mM HEPES, 10 mM glucose, pH 7.2) was added to each well. 10 μL/well of test compound or positive control compound to define 0% activity (i.e., 100% inhibition), was then added into each well. All compounds were plated in a duplicate 10-point dilution series that consisted of 2-fold dilutions. The plates were incubated (humidified, 37° C. with 5% C2) with compound for 20 minutes. Afterwards, 20 μL/well of 2 mM 13C6,15N-1-isoleucine was added to each well and plates were incubated again (humidified, 37° C. with 5% C02) for another 20 minutes. Assay buffer was then removed, and plates were washed. 70 μL/well of stop solution (75% acetonitrile, 25% HPLC grade water, 250 nM 1-leucine-1-13C (RapidFire standard)) was added to each well. The plates were sealed and then placed in a −20° C. freezer for 20 minutes. The plates were thawed at room temperature for 20 minutes and then centrifuge for 20 minutes at 3000 rpm. Using an ABSciex API4000 mass spectrometer, processed samples were loaded onto the graphitic carbon SPE-column. The time for aspiration, load/wash, elution and re-equilibration time was 600, 1500, 3000 and 500 milliseconds, respectively. Peak areas were calculated using RapidFire Integrator software.
A word on the IC50: it is the concentration that gives 50% inhibition. Turning to `Cc1cccc(COc2cc3[nH]c(CNC(=O)C4(C)CC4)cc3cc2Cl)n1` [Compound 42, N-((5-chloro-6-((6-methylpyridin-2-yl)methoxy)-1H-indol-2-yl)methyl)-1-methylcyclopropane-1-carboxamide], the IC50 came to 1620 nM.
`CC1(C(=O)NCc2cc3ccc(OCc4nccs4)cc3[nH]2)CC1` [Compound 43, 1-methyl-N-((6-(thiazol-2-ylmethoxy)-1H-indol-2-yl)methyl)cyclopropane-1-carboxamide]: the IC50 was 192 nM.
Turning to `CC1(C(=O)NCc2cc3ccc(OCc4ccc(Cl)cc4)cc3[nH]2)CC1` [Compound 44, N-((6-((4-chlorobenzyl)oxy)-1H-indol-2-yl)methyl)-1-methylcyclopropane-1-carboxamide], the IC50 was found to be 838 nM.
In the case of `CCC(=O)NCc1cc2ccc(OCc3cc(C)on3)cc2[nH]1` [Compound 47, N-((6-((5-methylisoxazol-3-yl)methoxy)-1H-indol-2-yl)methyl)propionamide], the IC50 was determined as 698 nM.
Next, `CC1(C(=O)NCc2cc3ccc(OCc4cncs4)cc3[nH]2)CC1` [Compound 48, 1-methyl-N-((6-(thiazol-5-ylmethoxy)-1H-indol-2-yl)methyl)cyclopropane-1-carboxamide]: 493 nM.
For `CC1(C(=O)NCc2cc3ccc(OCc4cocn4)cc3[nH]2)CC1` [Compound 49, 1-methyl-N-((6-(oxazol-4-ylmethoxy)-1H-indol-2-yl)methyl)cyclopropane-1-carboxamide], the IC50 came to 412 nM.
Turning to `Cc1cc(COc2ccc3cc(CNC(=O)C4(C)CC4)[nH]c3c2)no1` [Compound 50, 1-methyl-N-((6-((5-methylisoxazol-3-yl)methoxy)-1H-indol-2-yl)methyl)cyclopropane-1-carboxamide], the half-maximal inhibitory concentration (IC50) came to 193 nM.
For the compound `CC1(C(=O)NCc2cc3ccc(OCc4ncccn4)cc3[nH]2)CC1` [Compound 51, 1-methyl-N-((6-(pyrimidin-2-ylmethoxy)-1H-indol-2-yl)methyl)cyclopropane-1-carboxamide], the IC50 worked out at 4390 nM.
Take `CC1(C(=O)NCc2cc3ccc(OCc4cncnc4)cc3[nH]2)CC1` [Compound 52, 1-methyl-N-((6-(pyrimidin-5-ylmethoxy)-1H-indol-2-yl)methyl)cyclopropane-1-carboxamide]: the IC50 was 2110 nM.
For the compound `CC1(C(=O)NCc2cc3ccc(OCc4ccncn4)cc3[nH]2)CC1` [Compound 53, 1-methyl-N-((6-(pyrimidin-4-ylmethoxy)-1H-indol-2-yl)methyl)cyclopropane-1-carboxamide], the concentration for half-maximal inhibition (IC50) amounted to 4820 nM.
Turning to `CC1(C(=O)NCc2cc3ccc(OCc4ccccn4)cc3[nH]2)CC1` [Compound 54, 1-methyl-N-((6-(pyridin-2-ylmethoxy)-1H-indol-2-yl)methyl)cyclopropane-1-carboxamide], the 50% inhibitory concentration (IC50) turned out to be 155 nM.
Regarding `CC1(C(=O)NCc2cc3ccc(OCc4cccnc4)cc3[nH]2)CC1` [Compound 55, 1-methyl-N-((6-(pyridin-3-ylmethoxy)-1H-indol-2-yl)methyl)cyclopropane-1-carboxamide], the IC50 amounted to 427 nM.
Consider `CC1(C(=O)NCc2cc3ccc(OCc4ccncc4)cc3[nH]2)CC1` [Compound 56, 1-methyl-N-((6-(pyridin-4-ylmethoxy)-1H-indol-2-yl)methyl)cyclopropane-1-carboxamide], for which the IC50 was determined as 1950 nM.
As for `CC1(C(=O)NCc2cc3cc(F)c(OCc4cnco4)cc3[nH]2)CC1` [Compound 57, N-((5-fluoro-6-(oxazol-5-ylmethoxy)-1H-indol-2-yl)methyl)-1-methylcyclopropane-1-carboxamide], the IC50 is 577 nM.
`CC1(C(=O)NCc2cc3ccc(OCc4ccno4)cc3[nH]2)CC1` [Compound 62, N-((6-(isoxazol-5-ylmethoxy)-1H-indol-2-yl)methyl)-1-methylcyclopropanecarboxamide]: the half-inhibitory concentration (IC50) was 493 nM.
In the case of `CC1(C(=O)NCc2cc3ccc(CCc4ccon4)cc3[nH]2)CC1` [Compound 75, N-((6-(2-(isoxazol-3-yl)ethyl)-1H-indol-2-yl)methyl)-1-methylcyclopropanecarboxamide], the concentration for half-maximal inhibition (IC50) amounted to 464 nM.
As to `Cc1cc(CCc2ccc3cc(CNC(=O)C4(C)CC4)[nH]c3c2)no1` [Compound 77, 1-methyl-N-((6-(2-(5-methylisoxazol-3-yl)ethyl)-1H-indol-2-yl)methyl)cyclopropane-1-carboxamide], the IC50 was 355 nM.
Take `Cc1cc(Oc2ccc3cc(CNC(=O)C4(C)CC4)[nH]c3c2)no1` [Compound 78, 1-methyl-N-((6-((5-methylisoxazol-3-yl)oxy)-1H-indol-2-yl)methyl)cyclopropanecarboxamide]: the half-inhibitory concentration (IC50) was 5180 nM.
In the case of `CC1(C(=O)NCc2cc3ccc(OCc4ccsn4)cc3[nH]2)CC1` [Compound 94, N-((6-(isothiazol-3-ylmethoxy)-1H-indol-2-yl)methyl)-1-methylcyclopropanecarboxamide], the IC50 is 43.4 nM.
In the case of `CCc1cc(COc2cc3[nH]c(CNC(=O)C4(C)CC4)cc3cc2Cl)no1` [Compound 95], the IC50 amounted to 267 nM.
The value for `O=C(NCc1cc2ccc(OCc3ccon3)cc2[nH]1)N1CCCC1` [Compound 104, N-((6-(isoxazol-3-ylmethoxy)-1H-indol-2-yl)methyl)pyrrolidine-1-carboxamide] was 452 nM; that for `O=C(NCc1cc2ccc(OCc3cocn3)cc2[nH]1)N1CCCC1` [Compound 105, N-((6-(oxazol-4-ylmethoxy)-1H-indol-2-yl)methyl)pyrrolidine-1-carboxamide] was 644 nM; that for `O=C(NCc1cc2ccc(OCc3cncs3)cc2[nH]1)N1CCCC1` [Compound 106, N-((6-(thiazol-5-ylmethoxy)-1H-indol-2-yl)methyl)pyrrolidine-1-carboxamide] was 613 nM.
Turning to `CNC(=O)NCc1cc2ccc(OCc3ccon3)cc2[nH]1` [Compound 107, 1-((6-(isoxazol-3-ylmethoxy)-1H-indol-2-yl)methyl)-3-methylurea], the IC50 is 5890 nM.
With `CNC(=O)NCc1cc2ccc(OCc3cocn3)cc2[nH]1` [Compound 108, 1-methyl-3-((6-(oxazol-4-ylmethoxy)-1H-indol-2-yl)methyl)urea], the IC50 came to 5570 nM.
For `CNC(=O)NCc1cc2cc(Cl)c(OCc3cncs3)cc2[nH]1` [Compound 109, 1-((5-chloro-6-(thiazol-5-ylmethoxy)-1H-indol-2-yl)methyl)-3-methylurea], the IC50 came to 515 nM.
As for `CNC(=O)NCc1cc2cc(Cl)c(OCc3ccon3)cc2[nH]1` [Compound 110, 1-((5-chloro-6-(isoxazol-3-ylmethoxy)-1H-indol-2-yl)methyl)-3-methylurea], the IC50 was 464 nM.
Consider `CNC(=O)NCc1cc2cc(Cl)c(OCc3cocn3)cc2[nH]1` [Compound 111, 1-((5-chloro-6-(oxazol-4-ylmethoxy)-1H-indol-2-yl)methyl)-3-methylurea], for which the half-inhibitory concentration (IC50) worked out at 586 nM.
